Measured values reported in the supplement of paper PMC10307832.

How the values were obtained:
Assay in all cases: relative viability (nuclei count vs DMSO), 5 days (fraction); higher = more cells survive
HARA = test system: HARA
Outline: (§1)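 After 5 days of treatment, lung cancer cells in 1536-well plates were fixed and stained in a single step (final 0.05% Triton X-100, 1% formaldehyde, 1 ug/ml Hoechst) and their nuclei counted on 4× images. Treatment had been applied by pin tool the day after seeding as one drug alone or as a fixed anchor-drug dose with five library-drug doses (not always all listed) in √10 steps. Relative viability is the nuclei count of treated wells divided by that of vehicle wells, and values are medians of duplicate plates.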

LU99A = test system: LU99A
Outline: as §1

NCI-H2405 = test system: NCI-H2405
Outline: as §1

EMC-BAC-2 = test system: EMC-BAC-2
Outline: as §1

NCI-H1755 = test system: NCI-H1755
Outline: as §1

NCI-H460 = test system: NCI-H460
Outline: as §1

EPLC-272H = test system: EPLC-272H
Outline: as §1

NCI-H647 = test system: NCI-H647
Outline: as §1

ChaGo-K-1 = test system: ChaGo-K-1
Outline: as §1

EKVX = test system: EKVX
Outline: as §1

NCI-H1792 = test system: NCI-H1792
Outline: as §1

HCC-44 = test system: HCC-44
Outline: as §1

NCI-H596 = test system: NCI-H596
Outline: as §1

COR-L 105 = test system: COR-L 105
Outline: as §1

NCI-H1650 = test system: NCI-H1650
Outline: as §1

NCI-H1993 = test system: NCI-H1993
Outline: as §1

NCI-H1734 = test system: NCI-H1734
Outline: as §1

RERF-LC-KJ = test system: RERF-LC-KJ
Outline: as §1

A-427 = test system: A-427
Outline: as §1

NCI-H358 = test system: NCI-H358
Outline: as §1

LK-2 = test system: LK-2
Outline: as §1

`CN1CCN(CCOc2cc(OC3CCOCC3)c3c(Nc4c(Cl)ccc5c4OCO5)ncnc3c2)CC1` [Saracatinib] + CS(=O)(=O)N1CCN(Cc2cc3nc(-c4cccc5[nH]ncc45)nc(N4CCOCC4)c3s2)CC1 [Pictilisib] (partner 1 µM) gave a relative viability (HARA; first compound 0.02 µM) of 0.37, a relative viability (HARA; first compound 0.6325 µM) of 0.374 and a relative viability (HARA; first compound 2 µM) of 0.118. For the same compound, the relative viability (LU99A; first compound 0.02 µM) was 0.334, the relative viability (LU99A; first compound 0.2 µM) was 0.259 and the relative viability (LU99A; first compound 0.6325 µM) was 0.309. For the same compound, the relative viability (LU99A; first compound 2 µM) was 0.299, the relative viability (NCI-H2405; first compound 0.02 µM) was 0.441 and the relative viability (NCI-H2405; first compound 0.2 µM) was 0.366. The relative viability (NCI-H2405; first compound 0.6325 µM) was 0.352, the relative viability (NCI-H2405; first compound 2 µM) was 0.22 and the relative viability (EMC-BAC-2; first compound 0.02 µM) was 0.546. For the same compound, the relative viability (EMC-BAC-2; first compound 0.2 µM) was 0.507, the relative viability (EMC-BAC-2; first compound 0.6325 µM) was 0.497 and the relative viability (EMC-BAC-2; first compound 2 µM) was 0.34. For the same compound, the relative viability (NCI-H1755; first compound 0.02 µM) was 0.424, the relative viability (NCI-H1755; first compound 0.2 µM) was 0.408 and the relative viability (NCI-H1755; first compound 0.6325 µM) was 0.431. The relative viability (NCI-H1755; first compound 2 µM) was 0.26, the relative viability (NCI-H460; first compound 0.02 µM) was 0.367 and the relative viability (NCI-H460; first compound 0.6325 µM) was 0.242. The relative viability (NCI-H460; first compound 2 µM) was 0.286, the relative viability (EPLC-272H; first compound 0.02 µM) was 0.337 and the relative viability (EPLC-272H; first compound 0.2 µM) was 0.298. For the same compound, the relative viability (EPLC-272H; first compound 0.6325 µM) was 0.388, the relative viability (EPLC-272H; first compound 2 µM) was 0.232 and the relative viability (NCI-H647; first compound 0.02 µM) was 0.386. The relative viability (NCI-H647; first compound 0.2 µM) was 0.387, the relative viability (NCI-H647; first compound 0.6325 µM) was 0.425 and the relative viability (NCI-H647; first compound 2 µM) was 0.216. For the same compound, the relative viability (ChaGo-K-1; first compound 0.02 µM) was 0.784, the relative viability (ChaGo-K-1; first compound 0.2 µM) was 0.521 and the relative viability (ChaGo-K-1; first compound 0.6325 µM) was 0.903. The relative viability (ChaGo-K-1; first compound 2 µM) was 0.379, the relative viability (EKVX; first compound 0.02 µM) was 0.417 and the relative viability (EKVX; first compound 0.2 µM) was 0.409. It also gave a relative viability (EKVX; first compound 0.6325 µM) of 0.366, a relative viability (EKVX; first compound 2 µM) of 0.175 and a relative viability (NCI-H1792; first compound 0.02 µM) of 0.293. For the same compound, the relative viability (NCI-H1792; first compound 0.2 µM) was 0.239, the relative viability (NCI-H1792; first compound 0.6325 µM) was 0.302 and the relative viability (NCI-H1792; first compound 2 µM) was 0.263. For the same compound, the relative viability (HCC-44; first compound 0.02 µM) was 0.527, the relative viability (HCC-44; first compound 0.2 µM) was 0.598 and the relative viability (HCC-44; first compound 0.6325 µM) was 0.854. It also gave a relative viability (HCC-44; first compound 2 µM) of 0.442, a relative viability (NCI-H596; first compound 0.02 µM) of 0.218 and a relative viability (NCI-H596; first compound 0.2 µM) of 0.429. It also gave a relative viability (NCI-H596; first compound 0.6325 µM) of 0.435, a relative viability (NCI-H596; first compound 2 µM) of 0.319 and a relative viability (COR-L 105; first compound 0.02 µM) of 0.445. The relative viability (COR-L 105; first compound 0.2 µM) was 0.331, the relative viability (COR-L 105; first compound 0.6325 µM) was 0.361 and the relative viability (COR-L 105; first compound 2 µM) was 0.244. It also gave a relative viability (NCI-H1650; first compound 0.02 µM) of 0.626, a relative viability (NCI-H1650; first compound 0.2 µM) of 0.468 and a relative viability (NCI-H1650; first compound 0.6325 µM) of 0.377. The relative viability (NCI-H1650; first compound 2 µM) was 0.314, the relative viability (NCI-H1993; first compound 0.02 µM) was 0.655 and the relative viability (NCI-H1993; first compound 0.2 µM) was 0.969. For the same compound, the relative viability (NCI-H1993; first compound 2 µM) was 0.652, the relative viability (NCI-H1734; first compound 0.02 µM) was 0.475 and the relative viability (NCI-H1734; first compound 0.6325 µM) was 0.435. For the same compound, the relative viability (NCI-H1734; first compound 2 µM) was 0.387, the relative viability (RERF-LC-KJ; first compound 0.02 µM) was 0.503 and the relative viability (RERF-LC-KJ; first compound 0.2 µM) was 0.521. For the same compound, the relative viability (RERF-LC-KJ; first compound 0.6325 µM) was 0.604, the relative viability (RERF-LC-KJ; first compound 2 µM) was 0.362 and the relative viability (A-427; first compound 0.02 µM) was 0.652. The relative viability (A-427; first compound 0.2 µM) was 0.571, the relative viability (A-427; first compound 0.6325 µM) was 0.767 and the relative viability (A-427; first compound 2 µM) was 0.616. For the same compound, the relative viability (NCI-H358; first compound 0.02 µM) was 0.348, the relative viability (NCI-H358; first compound 0.2 µM) was 0.226 and the relative viability (NCI-H358; first compound 0.6325 µM) was 0.284. It also gave a relative viability (NCI-H358; first compound 2 µM) of 0.257, a relative viability (LK-2; first compound 0.02 µM) of 0.563 and a relative viability (LK-2; first compound 0.2 µM) of 0.316. For the same compound, the relative viability (LK-2; first compound 0.6325 µM) was 0.413 and the relative viability (LK-2; first compound 2 µM) was 0.302.
